US20020025943A1, “Nucleoside analog compositions and uses thereof” (priority 1997, published 2002)
Where two headings read alike, the source gives them in different places.

Columns and labels:
[1] = tested on: HIV-1 (RF strain); assay: NCI AIDS antiviral screen: inhibition of HIV-1 cytopathicity in T4 lymphocytes (CEM line), XTT viability; format: cell-based; details: for EC50: NCI screen, mean value
Protocol: Three DHA-ddC (compounds 8, 9, and 10 above) and one DHA-AZT conjugate (the compound described above) were sent to the National Cancer Institute's AIDS antiviral screen to test their anti-HIV activity in vitro. The compounds were provided as solutions in ethanol. The vials containing the conjugates were sealed under argon to prevent oxygen from possibly degrading the conjugates. Instructions were provided to store the vials containing the conjugates at 4° C. and to open the vials immediately before use.
The primary screen used by the NCI for anti-HIV activity utilizes the cytopathicity of HIV-1 for human T4 lymphocytes and the inhibition of such killing by drugs that inhibit viral cytotoxicity. The experimental protocols are described by Weislow et al., (J. Natl. Cancer Inst. 81:577-586, 1989) and Bader (, whose contents are incorporated herein by reference. Briefly, the compounds are diluted first in DMSO or other appropriate solvent, then diluted 1:100 in cell culture medium before preparing serial half log10 dilutions. T4 lymphocytes (CEM line) are added, and after a brief interval HIV-1 (RF strain) is added. Appropriate controls (infected and uninfected cells without compound, and non-infected cells with the compound) are included in the plate format. The cultures are incubated at 37° C. for six days during which time the cells proliferate, the virus reproduces and kills the cells. Cell viability is measured by the ability of cells to convert a colorless tetrazolium salt (XTT) to a highly colored soluble formazan. The intensity of the color is read in a spectrophotometer using an automated system. The wells are also examined microscopically to confirm the protective activity of the compounds.

[2] = tested on: HIV in human T4 cells; assay: Anti-HIV experiments performed at the Southern Research Institute (SRI); format: cell-based; details: for Fold Increase in Potency: SRI, Control/Expt, relative to the parent drug (AZT or ddC)
Source text: The results of the experiments performed at SRI are shown in Table 2; the results were expressed in terms of inhibitory concentration
These in vitro data in human cells establish that conjugating ddC drugs to DHA achieves higher activity (between >5400 fold to 55 to 13 fold) against HIV in human T4 cells. In particular, conjugation of DHA to ddC drugs at the pyrimidine ring of ddC rather than the pentose ring is preferred based upon the unexpected results of the foregoing assays.

[3] = Human immunodeficiency virus 1, Lymphocyte
[4] = SRI experiments, read-out: Inhibitory Concentration
[5] = Human immunodeficiency virus 1, SRI experiments, read-out: Inhibitory Concentration

Row | Compound | EC50 [1, 3] [nM] | Fold Increase in Potency [2] [fold] | IC50 [2, 4] [nM] | IC50 [2, 5] [nM] | further results
1 | Nc1ccn([C@H]2CC[C@@H](CO)O2)c(=O)n1 [ddC, 2′,3′-dideoxycytidine, reference compound] | 114 | 1.0 | – | – | IC50 ([2]; Human immunodeficiency virus 1, read-out: Inhibitory Concentration): 300 nM
2 | CC/C=C\C/C=C\C/C=C\C/C=C\C/C=C\C/C=C\CCC(=O)OC[C@@H]1CC[C@H](n2ccc(N)nc2=O)O1 [DHA-ddC 10] | – | 38 | 10 | – | –
3 | Cc1cn([C@H]2CC(N=[N+]=[N-])[C@@H](CO)O2)c(=O)[nH]c1=O (stereo partly drawn) [AZT, reference compound] | 17.7 | 1.0 | – | 100 | –
4 | CC/C=C\C/C=C\C/C=C\C/C=C\C/C=C\C/C=C\CCC(=O)OC[C@H]1O[C@@H](n2cc(C)c(=O)[nH]c2=O)C[C@@H]1N=[N+]=[N-] [DHA-AZT] | – | 1.7 | 60 | – | EC50 [1]: 26.2 nM; anti-HIV activity of the conjugate relative to that of the parent drug, AZT ([1]; NCI studies): did not alter the anti-HIV activity; activity relative to AZT alone ([2]; same assays as the DHA-ddC conjugates): not increased
5 | CC/C=C\C/C=C\C/C=C\C/C=C\C/C=C\C/C=C\CCC(=O)Nc1ccn([C@H]2CC[C@@H](CO)O2)c(=O)n1 [DHA-ddC 8] | – | 54.8 | – | 6.93 | Fold Increase in Potency over ddC ([1]; mean EC50 for ddC (moles/L) divided by EC50 of the conjugate (moles/L)): >3807 fold
6 | CC/C=C\C/C=C\C/C=C\C/C=C\C/C=C\C/C=C\CCC(=O)Nc1ccn([C@H]2CC[C@@H](COC(=O)CC/C=C\C/C=C\C/C=C\C/C=C\C/C=C\C/C=C\CC)O2)c(=O)n1 [DHA-ddC 9] | – | 12.7 | – | 30 | –
